Test results as given in patent publication US9012427B2, “Pharmaceutical combinations comprising a thionucleotide analog” (Alios BioPharma, Inc., priority 2012, dated 2015).
Like-named read-outs stand apart in the source and are kept apart here.

System: genotype 1b replicon carrying the firefly luciferase reporter
Experiment: HCV replicon in vitro combination assay, dual and triple combination (Example 1)
Format: cell-based
Conditions: Hepatitis C virus, 72 h, read-out: Individual IC50 values
Procedure: All compounds were dissolved in 100% DMSO (dimethyl sulfoxide) to a stock concentration of 10 mM and stored at −20° C. Serial 2-fold or 3-fold dilution series of compounds were prepared in 100% DMSO at 400-fold of the final concentration to be used in cell culture experiments that would result in a final DMSO concentration of 0.25% in growth medium.
Drug combination studies were carried out using the transient replicon system. On day one, in vitro transcribed RNA of a genotype 1b replicon carrying the firefly luciferase reporter was transfected into Huh-7-ET-cured cells using Minis transfection reagent. (Lohmann V et al., “Replication of subgenomic hepatitis C virus RNAs in a hepatoma cell line” Science (1999) 285(5424):110-113, which is hereby incorporated by reference in its entirety) Ten thousand transfected cells were cultured in complete DMEM medium [DMEM medium supplemented with 2 mM L-glutamine, 1× non-essential amino acids, 10% heat inactivated FBS and PenStrep (100 units/mL penicillin and 100 ug/mL streptomycin)] in the central 60 wells of 96-well, flat bottom, tissue culture treated plates and cultured at 37° C./5% CO2 humidified incubator for 24 h. The next day, compounds were serially diluted (2× or 3× dilution series) in 100% DMSO, mixed together in a checkerboard fashion and added to cells, and the plates were returned to the incubator for an additional 72 h. […] At the end of the incubation, cells from one set of the plates were lysed and the luciferase activity was measured using a luciferase assay kit. […]
The effects of dual combinations were evaluated using the Bliss independence model. (Greco et al., “The search for synergy: a critical review from a response surface perspective” Pharmacol. Rev. (1995) 47(2):331-385, which is hereby incorporated by reference in its entirety) The experimental data (RLU) was analyzed by using MacSynergy, a three-dimensional analytical method developed by Prichard and Shipman. […] The volume of the peak or depression is calculated to quantify the overall synergy or antagonism produced.

[1] = single compound, genotype 1b transient replicon in Huh-7-ET-cured cells, n = 3

Compound | IC50 | IC50 [1]
CC(C)OC(=O)[C@H](C)N[P@](=S)(OC[C@H]1O[C@@H](n2ccc(=O)[nH]c2=O)[C@](C)(O)[C@@H]1O)Oc1ccccc1 [Compound 1004] | 357 nM | 
COc1ccc2c(O[C@@H]3C[C@H]4C(=O)N[C@]5(C(=O)NS(=O)(=O)C6CC6)C[C@H]5/C=C\CCCCN(C)C(=O)[C@@H]4C3)cc(-c3nc(C(C)C)cs3)nc2c1C [Compound 3013, TMC-435] |  | 2.1 nM
COC(=O)N[C@H](C(=O)N1CCC[C@H]1c1ncc(-c2ccc(-c3ccc(-c4cnc([C@@H]5CCCN5C(=O)[C@@H](NC(=O)OC)C(C)C)[nH]4)cc3)cc2)[nH]1)C(C)C [Compound 3043, Daclatasvir] |  | 0.0114 nM
